One assay has as its system Plasmopara viticola. Put plainly: Green house: fungicidal control of grape downy mildew, protective spray on grape cuttings. Type of assay: in vivo. The note with it: single active, grape plants, sprayed 1 day before inoculation. How it is done: The stock solution were prepared: a mixture of acetone and/or dimethylsulfoxide and the wetting agent/emulsifier Wettol, which is based on ethoxylated alkylphenoles, in a relation (volume) solvent-emulsifier of 99 to 1 was added to 25 mg of the compound to give a total of 10 ml. Water was then added to total volume of 100 ml. This stock solution was diluted with the described solvent-emulsifier-water mixture to the given concentration.
The visually determined percentages of infected leaf areas are converted into efficacies in % of the untreated control.
The efficacy (E) is calculated as follows using Abbot's formula: […]
α corresponds to the fungicidal infection of the treated plants in % and β corresponds to the fungicidal infection of the untreated (control) plants in %
An efficacy of 0 means that the infection level of the treated plants corresponds to that of the untreated control plants; an efficacy of 100 means that the treated plants were not infected.
The expected efficacies of active compound combinations were determined using Colby's formula (Colby, S. R. “Calculating synergistic and antagonistic responses of herbicide combinations”, Weeds, 15, pp. 20-22, 1967) and compared with the observed efficacies.
Colby's formula: E=x+y−x·y/100
E expected efficacy, expressed in % of the untreated control, when using the mixture of the active compounds A and B at the concentrations a and b x efficacy, expressed in % of the untreated control, when using the active compound A at the concentration a y efficacy, expressed in % of the untreated control, when using the active compound B at the concentration b.
Grape cuttings were grown in pots to the 4 to 5 leaf stage. These plants were sprayed to run-off with an aqueous suspension, containing the concentration of active ingredient or their mixture mentioned in the table below. The plants were allowed to air-dry. […] Then the extent of fungal attack on the lower leaf surface was visually assessed as % diseased leaf area.

The next assay relates to Phytophthora infestans. The assay is classed as cell-based. The note with it: 0.00025 ppm, single active, 7 days after inoculation.
In the next assay the test system is Pyricularia oryzae. Type of assay: cell-based. The note with it: single active, 7 days after inoculation.

Read-outs that look alike come from different tables or passages of the source.

As for `Cn1cc(C(=O)Nc2ccccc2-c2cc(F)c(F)c(F)c2)c(C(F)F)n1`, the Observed efficacy with Plasmopara viticola (0.016 ppm) was found to be 0%. In the case of `Cc1cc(C(F)(F)F)nn1CC(=O)N1CCC(c2nc(C(=O)N(C)[C@@H]3CCCc4ccccc43)cs2)CC1` [2-{1-[2-(5-methyl-3-trifluoromethyl-pyrazol-1-yl)-acetyl]-piperid-4-yl}-thiazole-4-carboxylic acid methyl-(R)-1,2,3,4-tetrahydro-naphthalen-1-yl-amide], the Observed efficacy in the assay with Phytophthora infestans came to 0%; in the assay with Plasmopara viticola (0.063 ppm) it was 67%; with Pyricularia oryzae (0.063 ppm) it was 1%; in the assay on Pyricularia oryzae (63 ppm), 28%. On to `CCCCCCCCc1c(CC)nc2ncnn2c1N` [drawing 4], for which the Observed efficacy in the assay on Plasmopara viticola (0.016 ppm) is 11%. `CCCCCCCCc1c(CC)nc2ncnn2c1N` [drawing 13, reference compound]: the Observed efficacy with Pyricularia oryzae (4 ppm) was 10%.

The values are drawn from patent US20120070421A1 (priority 2009, published 2012).
